Values quoted from earlier work, collected in US20050058718A1, “Preparations for cigarette toxicity reduction, health enhancement, and addiction elimination” (priority 2003, published 2005).

Assays:
[1] = test system: leukoderma in their mouths and throats; conditions: 3 ppm selenium in drinking water
cancer cells = cancer cells external of the human body treated by selenium
[2] = 1300 people, 200 ug selenium daily for five years

[Se] [selenium]
delay of cancer formation versus control group [1]: two more weeks
decrease of carcinogenicity of cancer cells (cancer cells): 60%
reduction of large intestine and rectum cancer incidence (cancer incidence; [2]): 58%
reduction of lung cancer incidence (cancer incidence; [2]): 46%
reduction of prostate cancer incidence (cancer incidence; [2]): 63%
more chance to survive when sick from cancer (cancer incidence; selenium takers sick from cancer): 50%
